# Results published in patent US20240247031A1, “COMPOSITION FOR TREATING CANCER CONTAINING TELOMERASE-TARGETING GNRH ANTAGONIST-DERIVED PEPTIDE HS1002” (Research & Business Foundation Sungkyunkwan University, priority 2023, published 2024).
# Where a SMILES comes first, the peptide text is derived from it. [ ]: non-standard residue; d: D form. pGlu = O=C1CC[C@@H](C(=O)O)N1
# T1: gonadotropin-releasing hormone (GnRH) receptor (UniProt P30968 1-328, limits assumed)
# T1 sequence (looked up): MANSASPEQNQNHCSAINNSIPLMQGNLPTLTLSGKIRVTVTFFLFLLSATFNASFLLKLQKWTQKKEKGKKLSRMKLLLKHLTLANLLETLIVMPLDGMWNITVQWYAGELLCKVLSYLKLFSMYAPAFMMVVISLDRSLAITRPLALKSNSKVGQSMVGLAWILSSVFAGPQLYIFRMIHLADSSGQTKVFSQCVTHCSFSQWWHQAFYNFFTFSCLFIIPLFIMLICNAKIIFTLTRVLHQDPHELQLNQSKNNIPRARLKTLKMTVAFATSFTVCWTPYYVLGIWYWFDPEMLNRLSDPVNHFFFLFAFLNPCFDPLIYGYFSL
# Tests used:
# LNCaP = test: cells; assay type: cell-based, human; details: 48 h; for Cytotoxicity (IC50) LNCaP: human
# Protocol: (§1) To evaluate anticancer activities of the produced peptides on various types of cancer cells, MTT analysis was performed. Human prostate cancer cell lines (LNCaP, PC3, and DU145), human breast cancer cell lines (MDA-MB-231 and MCF-7), lung cancer cell line (A549), and ovarian cancer cell line (SKOV3) were cultured in RPMI media supplemented with 1% penicillin/streptomycin and 1% fetal bovine serum (all from Life Technologies, Grand Island, NY). The cells were seeded in 96-well plates containing 100 μL of growth media for 24 h. The media were removed, and then 100 μL of the peptide (solvent DPBS) at each concentration was added to each well and incubated at 37° C. for 48 h. After incubation for 48 h, 100 μL of MTT reagent was added to each well. The cells were incubated at 37° C. for 4 h, and then the supernatant was removed. Formazan crystals were dissolved in 100 μL of DMSO with gentle stirring at 37° C. for 10 min. The absorbance per well was measured at 540 nm using a VERSA max microplate reader (Molecular Devices Corp.).
# MCF-7 = test: cells; assay type: cell-based, human; details: for Cytotoxicity (IC50) MCF-7: human, 48 h
# Protocol: as §1
# A549 = test: MTT cytotoxicity on various cancer cells (Table 1); assay type: cell-based, human; details: for Cytotoxicity (IC50) A549: human, 48 h
# Protocol: as §1
# DU145 = test: MTT cytotoxicity on various cancer cells (Table 1); assay type: cell-based, human; details: for Cytotoxicity (IC50) DU145: human, 48 h
# Protocol: as §1
# PC3 = test: MTT cytotoxicity on various cancer cells (Table 1); assay type: cell-based, human; details: for Cytotoxicity (IC50) PC3: human, 48 h
# Protocol: as §1
# SKOV3 = test: MTT cytotoxicity on various cancer cells (Table 1); assay type: cell-based, human; details: for Cytotoxicity (IC50) SKOV3: human, 48 h
# Protocol: as §1
# [1] = biological target: T1, gonadotropin-releasing hormone (GnRH) …; test: cell-based or functional assay
Molecule,Cytotoxicity (IC50) LNCaP (LNCaP) [µg/mL],Cytotoxicity (IC50) MCF-7 (MCF-7) [µg/mL],Cytotoxicity (IC50) A549 (A549) [µg/mL],Cytotoxicity (IC50) DU145 (DU145) [µg/mL],Cytotoxicity (IC50) PC3 (PC3) [µg/mL],Cytotoxicity (IC50) SKOV3 (SKOV3) [µg/mL],"IC50 (LNCaP; Homo sapiens, LNCaP, read-out: Cytotoxicity (IC50) LNCaP) [µg/mL]","IC50 (MCF-7; Homo sapiens, MCF7, 48 h, read-out: Cytotoxicity (IC50) MCF-7) [µg/mL]","IC50 (A549; Homo sapiens, A549, 48 h, read-out: Cytotoxicity (IC50) A549) [µg/mL]","IC50 (DU145; Homo sapiens, DU-145, 48 h, read-out: Cytotoxicity (IC50) DU145) [µg/mL]","IC50 (PC3; Homo sapiens, PC-3, 48 h, read-out: Cytotoxicity (IC50) PC3) [µg/mL]","IC50 (SKOV3; Homo sapiens, SK-OV-3, 48 h, read-out: Cytotoxicity (IC50) SKOV3) [µg/mL]",CRE-luciferase activity in HEK293-GnRHR cells [1] [fold]
CC(C)C[C@H](NC(=O)[C@H](C)NC(=O)[C@@H]1CCCN1C(=O)[C@H](CCCNC(=N)N)NC(=O)[C@H](C)NC(=O)[C@@H](N)CCC(=O)O)C(=O)N[C@@H](CC(C)C)C(=O)N[C@@H](CO)C(=O)N[C@H](C(=O)N[C@@H](CCCNC(=N)N)C(=O)N[C@@H](CC(C)C)C(=O)N[C@@H](CCCNC(=N)N)C(=O)N1CCC[C@H]1C(=O)O)[C@@H](C)O [HS1001] (H-EARPALLSTRLRP-OH; N-terminus and C-terminus assumed),6.55 ± 0.96,48.26 ± 1.23,4.18 ± 0.15,7.82 ± 0.37,8.05 ± 1.58,6.14 ± 0.79,,,,,,,
CCNC(=O)[C@@H]1CCCN1C(=O)[C@@H](NC(=O)[C@H](Cc1ccccc1)NC(=O)[C@H](CCCNC(=N)N)NC(=O)[C@@H]1CCCN1C(=O)[C@H](C)NC(=O)[C@H](Cc1ccc(O)cc1)NC(=O)[C@H](CO)NC(=O)[C@H](Cc1c[nH]c2ccccc12)NC(=O)[C@H](Cc1c[nH]cn1)NC(=O)[C@@H]1CCC(=O)N1)[C@@H](C)CC [HS1003] ([pGlu]HWSYAPRFIP-NHEt; C-terminus assumed),10.9 ± 0.48,47.28 ± 2.05,9.48 ± 0.08,12.37 ± 0.31,24.05 ± 1.13,5.79 ± 0.38,,,,,,,
CCNC(=O)[C@@H]1CCCN1C(=O)[C@@H](NC(=O)[C@H](Cc1ccccc1)NC(=O)[C@H](C)NC(=O)[C@H](CC(C)C)NC(=O)[C@H](CCCNC(=N)N)NC(=O)[C@H](Cc1ccc(O)cc1)NC(=O)[C@H](CO)NC(=O)[C@H](Cc1c[nH]c2ccccc12)NC(=O)[C@H](Cc1c[nH]cn1)NC(=O)[C@@H]1CCC(=O)N1)[C@@H](C)CC [HS1004] ([pGlu]HWSYRLAFIP-NHEt; C-terminus assumed),9.97 ± 0.85,37.47 ± 1.58,,17.54 ± 0.74,16.49 ± 0.74,5.19 ± 0.82,,,,,,,
CC(C)C[C@H](NC(=O)[C@H](C)NC(=O)[C@@H]1CCCN1C(=O)[C@H](CCCNC(=N)N)NC(=O)[C@H](C)NC(=O)[C@@H](N)CCC(=O)O)C(=O)N[C@@H](CC(C)C)C(=O)N[C@@H](CO)C(=O)N[C@H](C(=O)N[C@@H](CCCNC(=N)N)C(=O)N[C@@H](Cc1ccccc1)C(=O)N[C@@H](CCCNC(=N)N)C(=O)N1CCC[C@H]1C(=O)N[C@@H](CCCCN)C(=O)O)[C@@H](C)O [HS1005] (H-EARPALLSTRFRPK-OH; N-terminus and C-terminus assumed),11.23 ± 1.01,44.15 ± 2.63,14.75 ± 0.83,16.17 ± 1.28,13.31 ± 1.05,14.08 ± 1.04,,,,,,,
CC(C)C[C@H](NC(=O)CNC(=O)[C@@H](NC(=O)[C@H](CO)NC(=O)[C@H](CC(C)C)NC(=O)[C@H](CC(C)C)NC(=O)[C@H](C)NC(=O)[C@@H]1CCCN1C(=O)[C@H](CCCNC(=N)N)NC(=O)[C@H](C)NC(=O)[C@@H](N)CCC(=O)O)[C@@H](C)O)C(=O)N[C@@H](CCCNC(=N)N)C(=O)N1CCC[C@H]1C(=O)N[C@@H](CCCCN)C(=O)O [HS1006] (H-EARPALLSTGLRPK-OH; N-terminus and C-terminus assumed),14.17 ± 0.47,55.24 ± 2.41,10.68 ± 0.25,19.46 ± 0.26,15.2 ± 1.12,13.91 ± 1.17,,,,,,,
"CC(=O)O[C@H]1C(=O)[C@@]2(C)[C@H]([C@H](OC(=O)c3ccccc3)[C@]3(O)C[C@H](OC(=O)[C@H](O)[C@@H](NC(=O)c4ccccc4)c4ccccc4)C(C)=C1C3(C)C)[C@]1(OC(C)=O)CO[C@@H]1C[C@@H]2O [PTX, Paclitaxel, reference compound]",,,,,,,0.81 ± 0.09,9.27 ± 1.12,3.62 ± 0.04,0.73 ± 0.04,59.4 ± 3.21,5.41 ± 0.19,
[pGlu]HWSYRLRFIP-NHEt (SMILES CCNC(=O)[C@@H]1CCCN1C(=O)[C@@H](NC(=O)[C@H](Cc1ccccc1)NC(=O)[C@H](CCCNC(=N)N)NC(=O)[C@H](CC(C)C)NC(=O)[C@H](CCCNC(=N)N)NC(=O)[C@H](Cc1ccc(O)cc1)NC(=O)[C@H](CO)NC(=O)[C@H](Cc1c[nH]c2ccccc12)NC(=O)[C@H](Cc1c[nH]cn1)NC(=O)[C@@H]1CCC(=O)N1)[C@@H](C)CC) [peptide HS1002],,,,,,,,,,,,,2
